Measured values from PubChem BioAssay AID248 (DTP/NCI, 2004).
“And” between values parts separate entries of the source, which are not always exact repeats. Equal values may be shown once. Inconclusive results and toxic doses are left out. Cut-off read from the data, not from the text of the source: active = T/C of 150% or more; inactive = T/C below 125%. Square brackets hold non-standard residues; d marks the D form. Peptide text beside a SMILES is read from it. * marks the point of attachment. ξ: configuration not given here. ξF = NC(Cc1ccccc1)C(=O)O; Cbz = O=C(OCc1ccccc1)*

Tested on: L1210 leukemia ip in BDF1 mice, survival T/C
Test: NCI In Vivo Anticancer Drug Screen. Data for tumor model L1210 Leukemia (intraperitoneal) in B6D2F1 (BDF1) mice
Conditions: endpoint: mean survival time, higher = longer survival
Procedure, shortened: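 Transplanted-tumor mice were given test agent; controls received vehicle only. Survival readings from the two groups were divided (treated over control).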

[1] = dose: 100.0 mg/kg/injection, schedule: Q01DX001 (ip), vehicle: other
[2] = dose: 200.0 mg/kg/injection, schedule: Q01DX001 (ip), vehicle: other
[3] = dose: 100.0 mg/kg/injection, schedule: Q01DX009 (ip), vehicle: Klucel (hydroxypropylcellulose) (HPC)
[4] = dose: 100.0 mg/kg/injection, schedule: Q04DX003 (ip), vehicle: Klucel (hydroxypropylcellulose) (HPC)
[5] = dose: 200.0 mg/kg/injection, schedule: Q01DX009 (ip), vehicle: Klucel (hydroxypropylcellulose) (HPC)
[6] = dose: 200.0 mg/kg/injection, schedule: Q04DX003 (ip), vehicle: Klucel (hydroxypropylcellulose) (HPC)
[7] = dose: 400.0 mg/kg/injection, schedule: Q01DX009 (ip), vehicle: Klucel (hydroxypropylcellulose) (HPC)
[8] = dose: 400.0 mg/kg/injection, schedule: Q04DX003 (ip), vehicle: Klucel (hydroxypropylcellulose) (HPC)
[9] = dose: 100.0 mg/kg/injection, schedule: Q04DX003 (ip), vehicle: saline with Tween-80
[10] = dose: 200.0 mg/kg/injection, schedule: Q04DX003 (ip), vehicle: saline with Tween-80
[11] = dose: 400.0 mg/kg/injection, schedule: Q04DX003 (ip), vehicle: saline with Tween-80
[12] = dose: 100.0 mg/kg/injection, schedule: Q01DX001 (ip), vehicle: saline
[13] = dose: 200.0 mg/kg/injection, schedule: Q01DX001 (ip), vehicle: saline
[14] = dose: 400.0 mg/kg/injection, schedule: Q01DX001 (ip), vehicle: saline
[15] = dose: 100.0 mg/kg/injection, schedule: Q01DX009 (ip), vehicle: saline with Tween-80
[16] = dose: 200.0 mg/kg/injection, schedule: Q01DX009 (ip), vehicle: saline with Tween-80
[17] = dose: 100.0 mg/kg/injection, schedule: Q04DX003 (ip), vehicle: saline
[18] = dose: 200.0 mg/kg/injection, schedule: Q04DX003 (ip), vehicle: saline
[19] = dose: 400.0 mg/kg/injection, schedule: Q04DX003 (ip), vehicle: saline

Measured: T/C

O=P(O)(N(CCCl)CCCl)N1CCN(Cc2ccccc2)CC1
inactive: dose: 10.0 mg/kg/injection, schedule: Q01DX Z (ip), vehicle: other 95 % of control | dose: 30.0 mg/kg/injection, schedule: Q01DX Z (ip), vehicle: other 105 % of control | dose: 100.0 mg/kg/injection, schedule: Q01DX Z (ip), vehicle: other 108 % of control

CC(C)c1cc(O)ccc1O
inactive: [1] 102 % of control | [2] 94 % of control

[C-]#[N+]C(C)(c1ccccc1)c1ccccc1
inactive: dose: 12.5 mg/kg/injection, schedule: Q01DX001 (ip), vehicle: acetone 92 % of control | dose: 25.0 mg/kg/injection, schedule: Q01DX001 (ip), vehicle: acetone 95 % of control | dose: 50.0 mg/kg/injection, schedule: Q01DX001 (ip), vehicle: acetone 110 % of control

Cc1cccc(C)c1NC(=O)Nc1ccc(Cl)cc1
inactive: [3] 97 % of control | [4] 97 % of control | [5] 96 % of control | [6] 100 % of control | [7] 91 % of control | [8] 95 % of control

CCOP(=O)(Cc1ccc(N=Cc2cnc3nc(NC(C)=O)[nH]c(=O)c3n2)cc1)OCC
inactive: [1] 98 % of control | [2] 105 % of control | dose: 400.0 mg/kg/injection, schedule: Q01DX001 (ip), vehicle: other 96 % of control

Nc1ccn(C2OC(CO)C(O)C2O)c(=NC(CO)C(=O)O)n1 (configuration not stated)
inactive: dose: 100.0 mg/kg/injection, schedule: Q01DX005 (ip), vehicle: saline 117 % of control | dose: 200.0 mg/kg/injection, schedule: Q01DX005 (ip), vehicle: saline 120 % of control

CCCCCCCCC(C)c1ccccc1O (configuration not stated)
inactive: [3] 104 % of control | [5] 101 % of control | [7] 112 % of control

COC(=O)C(Cc1ccccc1)NC(=O)CNC(=O)CNC(=O)OCc1ccccc1 (stereo not drawn) (Cbz-Gly-Gly-[ξF]-OMe)
inactive: dose: 100.0 mg/kg/injection, schedule: Q04DX003 (ip), vehicle: other 98 % of control | dose: 200.0 mg/kg/injection, schedule: Q04DX003 (ip), vehicle: other 97 % of control | dose: 400.0 mg/kg/injection, schedule: Q04DX003 (ip), vehicle: other 106 % of control

N#CC(c1ccccc1)c1ccc(F)cc1 (configuration not stated)
inactive: [3] 104 % of control | [4] 100 % of control | [5] 97 % of control | [6] 96 % of control | [7] 98 % of control | [8] 98 % of control

c1ccc(CNCc2ccc(CNCc3ccccc3)cc2)cc1
inactive: [9] 93 % of control | [10] 97 % of control | [11] 98 % of control

CCOc1ccccc1/C=N\NC(=O)c1cccc2ccccc12
inactive: [12] 95 % of control | [13] 95 % of control | [14] 90 % of control

CCN(CC)C(=O)Oc1ccc(OC)cc1
inactive: [15] 109 % of control | [16] 96 % of control

COc1ccc(/C=C2/CN(c3ccc(C(=O)O)cc3)C(=O)C2=O)cc1
inactive: [12] 95 % of control | [13] 98 % of control | [14] 98 % of control

Cc1ccc([N+](=O)[O-])cc1N=Nc1ccc(O)c(C(=O)O)c1
inactive: dose: 25.0 mg/kg/injection, schedule: Q04DX003 (ip), vehicle: Klucel (hydroxypropylcellulose) (HPC) 93 % of control | dose: 50.0 mg/kg/injection, schedule: Q04DX003 (ip), vehicle: Klucel (hydroxypropylcellulose) (HPC) 96 % of control | [4] 96 % of control and 88 % of control

OC1CCCC(c2ccccc2)C1 (configuration not stated)
inactive: [3] 97 % of control | [5] 97 % of control | [7] 95 % of control

O=c1[nH]cnc2nc(SCc3cccc([N+](=O)[O-])c3)[nH]c12
inactive: dose: 150.0 mg/kg/injection, schedule: Q01DX001 (ip), vehicle: other 89 % of control | dose: 300.0 mg/kg/injection, schedule: Q01DX001 (ip), vehicle: other 87 % of control

Cc1c(F)c(Br)c([N+](=O)[O-])c(C)c1[N+](=O)[O-]
inactive: dose: 100.0 mg/kg/injection, schedule: Q01DX001 (ip), vehicle: Klucel (hydroxypropylcellulose) (HPC) 96 % of control | dose: 200.0 mg/kg/injection, schedule: Q01DX001 (ip), vehicle: Klucel (hydroxypropylcellulose) (HPC) 102 % of control | dose: 400.0 mg/kg/injection, schedule: Q01DX001 (ip), vehicle: Klucel (hydroxypropylcellulose) (HPC) 102 % of control

O=C(c1ccc(F)cc1)c1ccc(Cl)cc1Cl
inactive: [9] 97 % of control | [10] 98 % of control | [11] 101 % of control

CCCCNC(c1ccc(C[N+]2(C)CCCC2)cc1)C(Cl)(Cl)Cl (configuration not stated)
inactive: dose: 10.0 mg/kg/injection, schedule: Q01DX001 (ip), vehicle: saline 95 % of control | dose: 20.0 mg/kg/injection, schedule: Q01DX001 (ip), vehicle: saline 95 % of control

C#CC(C)(C)OCC(O)CCl (configuration not stated)
inactive: dose: 100.0 mg/kg/injection, schedule: Q01DX009 (ip), vehicle: saline 96 % of control | dose: 100.0 mg/kg/injection, schedule: Q04DX003 (ip), vehicle: saline sonified 114 % of control | dose: 200.0 mg/kg/injection, schedule: Q01DX009 (ip), vehicle: saline 89 % of control | dose: 200.0 mg/kg/injection, schedule: Q04DX003 (ip), vehicle: saline sonified 109 % of control | dose: 400.0 mg/kg/injection, schedule: Q04DX003 (ip), vehicle: saline sonified 109 % of control

CCCCCCCCCCCCCCCCCC(N)=O
inactive: [3] 87 % of control | [4] 102 % of control | [5] 87 % of control | [6] 95 % of control | [7] 117 % of control | [8] 96 % of control

CCOP(=S)(S)OCC
inactive: [17] 97 % of control and 98 % of control | [18] 95 % of control and 93 % of control | [19] 98 % of control

CC(C)OC(=O)Nc1ccc(Cl)cc1
inactive: [15] 94 % of control | [16] 97 % of control | dose: 400.0 mg/kg/injection, schedule: Q01DX009 (ip), vehicle: saline with Tween-80 94 % of control

C#CCOC(=O)C(Cl)(Cl)Cl
inactive: dose: 100.0 mg/kg/injection, schedule: Q04DX002 (ip), vehicle: other 107 % of control | dose: 200.0 mg/kg/injection, schedule: Q04DX002 (ip), vehicle: other 96 % of control

COC(=O)C1CCCN1C(=O)C1CSC(C)(C)N1C=O (configuration not stated)
inactive: [17] 103 % of control | [18] 92 % of control | [19] 92 % of control

COc1cc(OC)c(N=Cc2ccc3c(c2)OCO3)cc1Cl
inactive: [3] 91 % of control | [5] 98 % of control | [7] 96 % of control

CN(C)c1c(-c2ccc(Cl)cc2)cc(-c2ccccc2)[nH]c1=O
inactive: dose: 100.0 mg/kg/injection, schedule: Q01DX001 (ip), vehicle: carboxymethylcellulose (CMC) 97 % of control | dose: 100.0 mg/kg/injection, schedule: Q01DX009 (ip), vehicle: acetone 95 % of control | [17] 89 % of control | dose: 200.0 mg/kg/injection, schedule: Q01DX001 (ip), vehicle: carboxymethylcellulose (CMC) 91 % of control | dose: 200.0 mg/kg/injection, schedule: Q01DX009 (ip), vehicle: acetone 98 % of control | [18] 89 % of control | dose: 400.0 mg/kg/injection, schedule: Q01DX001 (ip), vehicle: carboxymethylcellulose (CMC) 91 % of control | dose: 400.0 mg/kg/injection, schedule: Q01DX009 (ip), vehicle: acetone 93 % of control | [19] 87 % of control
